Experimental data from US10265298B2, “Method of increasing the bioavailability of silybin” (Macau University of Science and Technology, priority 2017, dated 2019).

Key:
[1] = biological target: T1, BCRP (Homo sapiens, UniProt Q9UNQ0); assay: Inhibition of pheophorbide A (Ph A) efflux in MDCKII-BCRP cell monolayers; conditions: for mean efflux ratio of Ph A in the presence of inhibitor: dog, 180 min
T1 sequence (Q9UNQ0 1-655): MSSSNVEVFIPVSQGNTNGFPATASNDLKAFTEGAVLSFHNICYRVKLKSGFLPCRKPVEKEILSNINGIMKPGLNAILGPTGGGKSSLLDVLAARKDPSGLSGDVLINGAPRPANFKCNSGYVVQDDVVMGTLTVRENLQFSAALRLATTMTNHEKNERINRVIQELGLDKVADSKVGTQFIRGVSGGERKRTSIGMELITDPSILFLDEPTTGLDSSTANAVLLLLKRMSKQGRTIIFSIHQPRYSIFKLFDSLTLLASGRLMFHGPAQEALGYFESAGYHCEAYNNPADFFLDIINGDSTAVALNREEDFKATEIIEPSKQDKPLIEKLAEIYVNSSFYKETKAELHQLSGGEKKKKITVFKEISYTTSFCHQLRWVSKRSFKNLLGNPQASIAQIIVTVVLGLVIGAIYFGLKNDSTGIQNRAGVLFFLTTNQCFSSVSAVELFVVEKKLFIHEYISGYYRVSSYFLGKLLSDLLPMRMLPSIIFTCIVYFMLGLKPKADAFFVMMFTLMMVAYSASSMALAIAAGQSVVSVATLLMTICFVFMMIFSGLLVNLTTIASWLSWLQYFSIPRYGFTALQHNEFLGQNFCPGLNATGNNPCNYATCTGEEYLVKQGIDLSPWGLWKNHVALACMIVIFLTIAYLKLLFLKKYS
Procedure: Parental Madin-Darby canine kidney II (MDCKII), multi-drug resistance gene 1-Madin-Darby canine kidney II (MDR1-MDCKII), breast cancer resistance protein-Madin-Darby canine kidney II (BCRP-MDCKII), and multi-drug resistance protein 2-Madin-Darby canine kidney II (MRP2-MDCKII) cells were kindly provided by the Netherlands Cancer Institute (Amsterdam, Netherlands) and frozen at −80° C. The MDCKII cells were cultured at 37° C./5% CO2 in Dulbecco's modified Eagle's medium supplemented with 10% fetal bovine serum, 1% nonessential amino acids, and 2% penicillin-streptomycin. The cells were seeded on transwell inserts (Corning Inc.) at a density of 2.0×10^5 cells/cm^2 and grown for 4-5 days to form confluent monolayers.
Bidirectional transport assays in human colorectal adenocarcinoma 2 (Caco-2) and Madin-Darby canine kidney II (MDCK II) was carried out by dosing substrates in assay buffer to either the apical chamber (A-to-B) or the basolateral chamber (B-to-A); cells were then incubated at 37° C. with shaking at 50 rotations per minute (rpm), and 100 μl samples were collected at 30, 60, 90, 120 and 180 minutes from the basolateral chamber to study the drug transport of AP to BL, or apical chamber to study the drug transport of BL to AP. Cell monolayers were then washed twice with ice-cold assay buffer and lysed with methanol on ice for 10 minutes. For inhibition studies, Caco-2 or MDCK II cell monolayers were pre-incubated with an inhibitor in both apical and basolateral chambers for 30 minutes, and bidirectional transport of 10 μM silybin was conducted in the absence (control) or presence of the inhibitor in both chambers. […] For fluorescence intensity detection, samples collected from AP or BL side were immediately detected in 96 well black plate by Microplate ultraviolet-visible spectroscopy (UV/VIS) spectrophotometer (TECAN infinite M200 PRO, Männedorf, Switzerland). In all cases, each determination was performed in triplicate.
The apparent permeability coefficients (Papp) were calculated as Papp=dQ/dt×1/(C“0”A) where dQ/dt (mM/sec) is the rate of permeation of the drug across the cells, C0 (millimolar (mM)) is the donor compartment concentration at time zero and A (cm^2) is the area of the cell monolayer. C0 is obtained from analysis of the dosing solution at the start experiment. Efflux Ratio (ER)=Papp (B to A)/Papp (A to B), while Papp (B−A) is the Papp value measured in the B to A direction, and Papp (A−B) is the Papp value measured in the A to B direction. 1.5 Preparation of Rat Sandwich-Cultured Hepatocytes
(§1) (*, P<0.05;**, P<0.01; ***, P<0.001 vs absence of any inhibitor. n=3).
as §1

[2] = tested on: rat sandwich-cultured hepatocytes; assay: in vitro; type: in vitro ADME
Procedure: Sandwich-cultured rat hepatocytes (SCHs) were established according to previously described methods with minor modifications. Primary rat hepatocytes were isolated from male Sprague Dawley® (SD) rats (220-270 g) using a collagenase perfusion as described previously and plated at a density of 7.4×10^5 cells/2 ml/well onto six-well BioCoat plates. Approximately 24 hours later, hepatocytes were overlaid with 2 ml of 0.25 mg/ml BD Matrigel basement membrane matrix in Dulbecco's modified Eagle medium (DMEM) containing 1% volume by volume percentage (v/v) insulin/transferrin/selenium culture supplement, […] dexamethasone, 2 mM L-glutamine, 1% (v/v) minimum essential medium nonessential amino acids, 1% penicillin-streptomycin. Hepatocytes were cultured for 4 days to allow extensive formation of canalicular networks between cells before experimentation and the medium was changed daily.
Sandwich-cultured hepatocytes (SCHs) were pre-incubated in 2 milliliters (ml) of warm Hank's Balanced Salt Solution (HBSS) with or without Ca^2+ at 37° C. for 15 minutes; the tight junctions of the bile canaliculi open temporally after exposure to HBSS without Ca^2+. Subsequently, cells were incubated at 37° C. for 20 minutes with 1.5 ml of standard HBSS containing silybin (10 μM), or MK 571 (50 μM) as a positive control, or baicalein (25, 15.8, 5, 1.58, 0.5, 0.16 μM), or tangeretin (25, 15.8, 5, 1.58, 0.5 μM). After 20 min, cells were washed three times with ice-cold standard HBSS. The cell samples were lysed by sonication in 1 ml of water for 5 seconds with the ultrasonic cell disruption system (SONICS & […], INC., Newtown, Conn., USA). Conjugated silybin and unconjugated (free) silybin were quantified by high-performance liquid chromatography-tandem mass spectrometry (HPLC-MS/MS). Transport function was normalized to the protein content of the hepatocytes which was evaluated by bicinchoninic acid (BCA) protein assay (Pierce Chemical, Rockford, Ill.). The biliary excretion index (BEI; %) and in vitro biliary clearance (Clbiliary; ml/min/kg) were calculated by using B-CLEAR technology (Qualyst, Inc., Research Triangle Park, N.C.) based on the following equations: […]

| SMILES | IC50 [1] [µM] | mean efflux ratio of Ph A in the presence of inhibitor [1] | reduction of biliary excretion of silybin ([2]; baicalein at 25 μM, silybin 10 μM) [%] | mean BEI (biliary excretion index), free silybin [2] [%] | intrinsic biliary clearance ([2]; rat, hepatocytes) | effect on biliary clearance of silybin ([2]; rat, hepatocytes) |
| --- | --- | --- | --- | --- | --- | --- |
| O=c1cc(-c2ccccc2)oc2cc(O)c(O)c(O)c12 [baicalein] | 22.1 | 1.48 | ~75 |  |  |  |
| COc1cc([C@@H]2Oc3cc([C@H]4Oc5cc(O)cc(O)c5C(=O)[C@@H]4O)ccc3O[C@H]2CO)ccc1O [silybin B] |  |  |  | 33±1 | 2.5±0.4 μl/(min·mg protein) |  |
| COc1ccc(-c2cc(=O)c3c(OC)c(OC)c(OC)c(OC)c3o2)cc1 [tangeretin] | 8.88 | 1.18 |  |  |  | inhibited the biliary clearance of silybin |
| COc1cc([C@H]2Oc3cc([C@H]4Oc5cc(O)cc(O)c5C(=O)[C@@H]4O)ccc3O[C@@H]2CO)ccc1O [silybin A] |  |  |  | 35±4 | 2.1±0.2 μl/(min·mg protein) |  |
